In patent US8377903B2, “Cladribine regimen for treating multiple sclerosis” (Merck Serono SA, priority 2004, dated 2013):

Tests used:
[1] = test system: patients with multiple sclerosis; conditions: with the highest doses; i.v. or s.c.; cited from earlier work
[2] = test system: patients with Chronic Progressive MS and Relapsing-Remitting MS; conditions: Phase II; 0.1 mg/kg/day i.v. 7 days x 4 months or 0.07 mg/kg/day s.c. 5 days x 6 months; cited from earlier work
[3] = test system: patients with remitting-relapsing multiple sclerosis; conditions: 6 monthly courses of 5 days, total dose about 4-5.7 mg/kg, cited from earlier work
[4] = test system: patients with primary progressive (PP) or secondary progressive (SP) multiple sclerosis; conditions: Phase III; 0.07 mg/kg/day s.c., repeated for 2 or 6 months; cited from earlier work
[5] = test system: patients with relapsing forms of clinically definite multiple sclerosis; test: Oral Cladribine in the treatment of relapsing forms of MS (Example 1 protocol); format: in vivo, human
Excerpt: The efficacy and safety of oral Cladribine administration, eventually multi-dose administration, according to the invention can be assessed for example following the protocol below:
A study of sixty patients with relapsing forms of clinically definite multiple sclerosis is undertaken. Each patient is first examined for normal hepatic, renal, and bone marrow functioning to establish baseline values.
Patients are selected from Male or Female, between 18 and 55 years of age who had one or more relapses within the prior 12 months. Female patients are non-pregnant female.
Each of the patients in Groups 2 and 3 receives 3 mg or 10 mg 2-CdA (1, 2 or 3 administration(s) a day depending on the patient's weight) combined in cyclodextrin formulation as described in WO 2004/087101, Example 3. The Compositions of the Cladribine formulations in 3 mg or 10 mg 2-CdA tablets containing hydroxypropyl-beta-cyclodextrin are listed in Table 2 below:
In Group 1 patients receive a placebo (saline) for 4 months followed by 8 months of no treatment.
Patients are monitored to determine whether there is any progression or improvement of brain lesions associated with progression of MS through MRI scans and neurological examination as described in Miller et al., 1996, above; Evans et al., 1997, above; Sipe et al., 1984, above; and Mattson, 2002, above. All patients have a baseline and MRI study (brain or spinal cord, according to localization of the lesions) at month 12.
The patient's disability progression and the time for having a first relapse are monitored as well as the proportion of relapse-fee patients at 24 months.
Lymphocyte markers and monocyte counts are monitored in the patients.

[6] = oral, succession of an induction treatment and maintenance treatments

Nc1nc(Cl)nc2c1ncn2[C@H]1C[C@H](O)[C@@H](CO)O1 [Cladribine, 2-chloro-2′ deoxyadenosine]
adverse effects (AEs) [1]: increased incidence of infections related to compromised immune function or myelosuppression
effects on EDSS, SNRS scores and MRI findings [2]: positive effects
therapeutic efficacy of oral regimen versus i.v. infusion therapy [3]: questioned
side effects versus i.v. infusion study ([3]; oral): less severe
MRI-measured brain lesions [4]: positive on the significant reduction of MRI-measured brain lesions
brain lesions (MRI scans) ([5]; Groups 2 and 3: oral 2-CdA total dose 1.75 mg/kg or 3.5 mg/kg): decrease in brain lesions
adverse effects [5, 6]: no severe adverse effect is observed
efficacy of regimen on brain lesions [5, 6]: efficient in decreasing brain lesions
